Reference: patent publication US8802597B2, “Herbicidal pyrimidines” (E I du Pont de Nemours and Company, priority 2003, dated 2014)
Where two headings read alike, the source gives them in different places.

What was measured:
Format in all cases: in vivo
[1] = test system: Surinam grass (Brachiaria decumbens); experiment: Test B pre/postemergence; details: Urochloa decumbens; for pest or weed control at 125 g/ha: 125 g ai/ha; for pest or weed control at 500 g/ha: 500 g ai/ha
Summary of the method: (§1)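 Following sowing, compounds in a surfactant-bearing non-phytotoxic solvent were applied preemergence; emerged plants 2 to 18 cm high got postemergence treatment concurrently. Evaluation: 13 to 15 days later, greenhouse, 0–100 visual scale.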

[2] = test system: barnyardgrass (Echinochloa crus-galli); experiment: Test B pre/postemergence; details: Echinochloa crus-galli; for pest or weed control at 125 g/ha: 125 g ai/ha; for pest or weed control at 500 g/ha: 500 g ai/ha
Summary of the method: as §1

[3] = test system: cocklebur (Xanthium strumarium); experiment: Test B pre/postemergence; details: Xanthium strumarium; for pest or weed control at 125 g/ha: 125 g ai/ha; for pest or weed control at 500 g/ha: 500 g ai/ha
Summary of the method: as §1

[4] = test system: corn (Zea mays); experiment: Test B pre/postemergence; details: Zea mays
Summary of the method: as §1

[5] = test system: crabgrass (Digitaria sanguinalis); experiment: Test B pre/postemergence; details: Digitaria sanguinalis; for pest or weed control at 125 g/ha: 125 g ai/ha; for pest or weed control at 500 g/ha: 500 g ai/ha
Summary of the method: as §1

[6] = test system: giant foxtail (Setaria faberii); experiment: Test B pre/postemergence; details: Setaria faberi; for pest or weed control at 125 g/ha: 125 g ai/ha; for pest or weed control at 500 g/ha: 500 g ai/ha
Summary of the method: as §1

[7] = test system: lambsquarters (Chenopodium album); experiment: Test B pre/postemergence; details: Chenopodium album; for pest or weed control at 125 g/ha: 125 g ai/ha; for pest or weed control at 500 g/ha: 500 g ai/ha
Summary of the method: as §1

[8] = test system: morningglory (Ipomoea coccinea); experiment: Test B pre/postemergence; details: Ipomoea; for pest or weed control at 125 g/ha: 125 g ai/ha; for pest or weed control at 500 g/ha: 500 g ai/ha
Summary of the method: as §1

[9] = test system: pigweed (Amaranthus retroflexus); experiment: Test B pre/postemergence; details: Amaranthus retroflexus; for pest or weed control at 125 g/ha: 125 g ai/ha; for pest or weed control at 500 g/ha: 500 g ai/ha
Summary of the method: as §1

[10] = test system: velvetleaf (Abutilon theophrasti); experiment: Test B pre/postemergence; details: Abutilon theophrasti; for pest or weed control at 125 g/ha: 125 g ai/ha; for pest or weed control at 500 g/ha: 500 g ai/ha
Summary of the method: as §1

[11] = test system: wheat (Triticum aestivum); experiment: Test B pre/postemergence; details: Triticum aestivum; for plant injury at 125 g/ha: 125 g ai/ha; for plant injury at 500 g/ha: 500 g ai/ha
Summary of the method: as §1

[12] = test system: blackgrass (Alopecurus myosuroides); experiment: Test B postemergence; details: Alopecurus myosuroides, post-emergence
Summary of the method: as §1

[13] = test system: wild oat (Avena fatua); experiment: Test B postemergence; details: Avena fatua, post-emergence
Summary of the method: as §1

[14] = test system: barnyardgrass (Echinochloa crus-galli); experiment: Test B flooded paddy test; details: Echinochloa crus-galli, Flood, 1000 g ai/ha; scale 0 (no effect) to 100 (complete control); read-out: Plant response rating, Barnyardgrass
Summary of the method: (§2)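 Plants were grown to the 2-leaf stage before treatment, then kept in a greenhouse for 13 to 15 days. Injury was rated visually against untreated controls on a 0 to 100 scale, where 0 is no effect and 100 is complete control.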

[15] = test system: duck salad (Heteranthera limosa); experiment: Test B flooded paddy test; details: Heteranthera limosa, Flood, 1000 g ai/ha; scale 0 to 100; read-out: Plant response rating, Ducksalad
Summary of the method: as §2

[16] = test system: rice (Oryza sativa); experiment: Test B flooded paddy test; details: Oryza sativa, Flood, 1000 g ai/ha; scale 0 to 100; read-out: Plant response rating, Rice
Summary of the method: as §2

[17] = test system: umbrella sedge (Cyperus difformis); experiment: Test B flooded paddy test; details: Cyperus difformis, Flood, 1000 g ai/ha; scale 0 to 100; read-out: Plant response rating, Sedge, Umbrella
Summary of the method: as §2

## COC(=O)c1nc(C(C)C)nc(N)c1Br [Compound 3]
[1]; post-emergence, Postemergence, scale 0 to 100 (0 no effect, 100 complete control), read-out: Surinam Grass plant response rating
  pest or weed control at 125 g/ha: 10%
[1]; post-emergence, Postemergence, scale 0 to 100, read-out: Plant response rating, Surinam Grass
  pest or weed control at 500 g/ha: 30%
[1]; pre-emergence, Preemergence, scale 0 to 100 (0 no effect, 100 complete control), read-out: Plant response rating, Surinam Grass
  pest or weed control at 125 g/ha: 0%
[1]; pre-emergence, Preemergence, scale 0 to 100 (0 no effect, 100 complete control), read-out: Surinam Grass plant response rating
  pest or weed control at 500 g/ha: 20%
[2]; post-emergence, Postemergence, scale 0 to 100 (0 no effect, 100 complete control), read-out: Barnyardgrass plant response rating
  pest or weed control at 125 g/ha: 0%
[2]; post-emergence, Postemergence, scale 0 to 100, read-out: Plant response rating, Barnyardgrass
  pest or weed control at 500 g/ha: 10%
[2]; pre-emergence, Preemergence, scale 0 to 100 (0 no effect, 100 complete control), read-out: Plant response rating, Barnyardgrass
  pest or weed control at 125 g/ha: 0%
[2]; pre-emergence, Preemergence, scale 0 to 100 (0 no effect, 100 complete control), read-out: Barnyardgrass plant response rating
  pest or weed control at 500 g/ha: 0%
[3]; post-emergence, Postemergence, scale 0 to 100 (0 no effect, 100 complete control), read-out: Cocklebur plant response rating
  pest or weed control at 125 g/ha: 70%
[3]; post-emergence, Postemergence, scale 0 to 100, read-out: Plant response rating, Cocklebur
  pest or weed control at 500 g/ha: 100%
[3]; pre-emergence, Preemergence, scale 0 to 100 (0 no effect, 100 complete control), read-out: Plant response rating, Cocklebur
  pest or weed control at 125 g/ha: 80%
[3]; pre-emergence, Preemergence, scale 0 to 100 (0 no effect, 100 complete control), read-out: Cocklebur plant response rating
  pest or weed control at 500 g/ha: 80%
[4]; post-emergence, Postemergence, 125 g ai/ha, scale 0 to 100 (0 no effect, 100 complete control), read-out: Corn plant response rating
  plant injury at 125 g/ha: 0%
[4]; post-emergence, Postemergence, 500 g ai/ha, scale 0 to 100
  Corn plant response rating (crop injury, 0 = no effect, 100 = complete kill) at 500 g/ha: 0%
[4]; pre-emergence, Preemergence, 125 g ai/ha, scale 0 to 100 (0 no effect, 100 complete control)
  Corn plant response rating (crop injury, 0 = no effect, 100 = complete kill) at 125 g/ha: 0%
[4]; pre-emergence, Preemergence, 500 g ai/ha, scale 0 to 100 (0 no effect, 100 complete control), read-out: Corn plant response rating
  plant injury at 500 g/ha: 0%
[5]; post-emergence, Postemergence, scale 0 to 100 (0 no effect, 100 complete control), read-out: Crabgrass plant response rating
  pest or weed control at 125 g/ha: 30%
[5]; post-emergence, Postemergence, scale 0 to 100, read-out: Plant response rating, Crabgrass
  pest or weed control at 500 g/ha: 40%
[5]; pre-emergence, Preemergence, scale 0 to 100 (0 no effect, 100 complete control), read-out: Plant response rating, Crabgrass
  pest or weed control at 125 g/ha: 10%
[5]; pre-emergence, Preemergence, scale 0 to 100 (0 no effect, 100 complete control), read-out: Crabgrass plant response rating
  pest or weed control at 500 g/ha: 50%
[6]; post-emergence, Postemergence, scale 0 to 100 (0 no effect, 100 complete control), read-out: Foxtail, Giant plant response rating
  pest or weed control at 125 g/ha: 20%
[6]; post-emergence, Postemergence, scale 0 to 100, read-out: Plant response rating, Foxtail, Giant
  pest or weed control at 500 g/ha: 40%
[6]; pre-emergence, Preemergence, scale 0 to 100 (0 no effect, 100 complete control), read-out: Plant response rating, Foxtail, Giant
  pest or weed control at 125 g/ha: 0%
[6]; pre-emergence, Preemergence, scale 0 to 100 (0 no effect, 100 complete control), read-out: Foxtail, Giant plant response rating
  pest or weed control at 500 g/ha: 0%
[7]; post-emergence, Postemergence, scale 0 to 100 (0 no effect, 100 complete control), read-out: Lambsquarters plant response rating
  pest or weed control at 125 g/ha: 100%
[7]; post-emergence, Postemergence, scale 0 to 100, read-out: Plant response rating, Lambsquarters
  pest or weed control at 500 g/ha: 100%
[7]; pre-emergence, Preemergence, scale 0 to 100 (0 no effect, 100 complete control), read-out: Plant response rating, Lambsquarters
  pest or weed control at 125 g/ha: 70%
[7]; pre-emergence, Preemergence, scale 0 to 100 (0 no effect, 100 complete control), read-out: Lambsquarters plant response rating
  pest or weed control at 500 g/ha: 90%
[8]; post-emergence, Postemergence, scale 0 to 100 (0 no effect, 100 complete control), read-out: Morningglory plant response rating
  pest or weed control at 125 g/ha: 80%
[8]; post-emergence, Postemergence, scale 0 to 100, read-out: Plant response rating, Morningglory
  pest or weed control at 500 g/ha: 100%
[8]; pre-emergence, Preemergence, scale 0 to 100 (0 no effect, 100 complete control), read-out: Plant response rating, Morningglory
  pest or weed control at 125 g/ha: 50%
[8]; pre-emergence, Preemergence, scale 0 to 100 (0 no effect, 100 complete control), read-out: Morningglory plant response rating
  pest or weed control at 500 g/ha: 60%
[9]; post-emergence, Postemergence, scale 0 to 100 (0 no effect, 100 complete control), read-out: Pigweed plant response rating
  pest or weed control at 125 g/ha: 80%
[9]; post-emergence, Postemergence, scale 0 to 100, read-out: Plant response rating, Pigweed
  pest or weed control at 500 g/ha: 90%
[9]; pre-emergence, Preemergence, scale 0 to 100 (0 no effect, 100 complete control), read-out: Plant response rating, Pigweed
  pest or weed control at 125 g/ha: 80%
[9]; pre-emergence, Preemergence, scale 0 to 100 (0 no effect, 100 complete control), read-out: Pigweed plant response rating
  pest or weed control at 500 g/ha: 90%
[10]; post-emergence, Postemergence, scale 0 to 100 (0 no effect, 100 complete control), read-out: Velvetleaf plant response rating
  pest or weed control at 125 g/ha: 50%
[10]; post-emergence, Postemergence, scale 0 to 100, read-out: Plant response rating, Velvetleaf
  pest or weed control at 500 g/ha: 80%
[10]; pre-emergence, Preemergence, scale 0 to 100 (0 no effect, 100 complete control), read-out: Plant response rating, Velvetleaf
  pest or weed control at 125 g/ha: 40%
[10]; pre-emergence, Preemergence, scale 0 to 100 (0 no effect, 100 complete control), read-out: Velvetleaf plant response rating
  pest or weed control at 500 g/ha: 70%
[11]; post-emergence, Postemergence, scale 0 to 100 (0 no effect, 100 complete control), read-out: Wheat plant response rating
  plant injury at 125 g/ha: 10%
[11]; post-emergence, Postemergence, scale 0 to 100, read-out: Plant response rating, Wheat
  plant injury at 500 g/ha: 20%
[11]; pre-emergence, Preemergence, scale 0 to 100 (0 no effect, 100 complete control), read-out: Plant response rating, Wheat
  plant injury at 125 g/ha: 0%
[11]; pre-emergence, Preemergence, scale 0 to 100 (0 no effect, 100 complete control), read-out: Wheat plant response rating
  plant injury at 500 g/ha: 0%
[12]; 125 g ai/ha, scale 0 to 100 (0 no effect, 100 complete control), read-out: Blackgrass plant response rating
  pest or weed control at 125 g/ha: 20%
[12]; 500 g ai/ha, scale 0 to 100, read-out: Plant response rating, Blackgrass
  pest or weed control at 500 g/ha: 50%
[13]; 125 g ai/ha, scale 0 to 100 (0 no effect, 100 complete control), read-out: Oat, Wild plant response rating
  pest or weed control at 125 g/ha: 10%
[13]; 500 g ai/ha, scale 0 to 100, read-out: Plant response rating, Oat, Wild
  pest or weed control at 500 g/ha: 30%
[14]
  pest or weed control at 1000 g/ha: 0%
[15]
  pest or weed control at 1000 g/ha: 0%
[16]
  plant injury at 1000 g/ha: 0%
[17]
  pest or weed control at 1000 g/ha: 0%
